Assay results: patent publication US11214803B2, “Modulators of YAP1 expression” (Ionis Pharmaceuticals, Inc., priority 2019, dated 2022)

Columns and labels:
Assay type in all cases: in vivo, human
[1] = test system: ERK1/2; experiment: Measurement of ERK activation (pERK/ERK) in SNU449 xenograft model with sorafenib (second Example 30); details: SNU449 xenograft tumors, pERK/ERK relative to PBS control, oligonucleotide 50 mg/kg, sorafenib 30 mg/kg orally
Experimental: (§1) Five million SNU449 cells in 30% matrigel were implanted subcutaneously into the fatpads of female NOD.Cg-Prkdcscid II2rgtmlWjl/SzJ mice (from Jackson Laboratory) at 4-6 weeks of age. 43 days post implantation (when tumors had reached approximately 100 mm^3 in size), groups of eight mice each were administered with 50 mg/kg modified oligonucleotide daily for 10 days (loading dose), following which they were administered with 50 mg/kg modified oligonucleotide four times a week for one week, following which they were dosed with 50 mg/kg modified oligonucleotide thrice weekly until the end of the study.
Protein analysis was carried out using standard procedures. […] ERK protein levels were compared to internal control GAPDH. […] The secondary antibody used was donkey anti-rabbit NA934, GE Healthcare. pERK/ERK levels were calculated relative to PBS control to determine % activation of ERK1/2.

[2] = test system: SNU449 xenograft tumor; experiment: Tumor volume in SNU449 xenograft tumor model, alone and in combination with sorafenib (second Example 30); details: SNU449 xenograft, oligonucleotide 50 mg/kg, sorafenib 30 mg/kg orally
Experimental: Modified oligonucleotides described in the studies above were tested in a hepatocellular carcinoma SNU449 xenograft tumor model. […] A control oligonucleotide 792169, described herein above, was also tested.
as §1, with “study. […] Animals were sacrificed, and tumors were collected on day 119 post implantation.” for “study.”
Tumor volumes were also measured at the indicated days in the table below.

[3] = test system: Yap1 mRNA; experiment: Yap1 mRNA levels in SNU449 xenograft tumors, alone and in combination with sorafenib (second Example 30); details: SNU449 xenograft mice, oligonucleotide 50 mg/kg, sorafenib 30 mg/kg orally, tumors collected day 119 post implantation, relative to PBS
Experimental: Modified oligonucleotides described in the studies above were tested in a hepatocellular carcinoma SNU449 xenograft tumor model. In addition to testing the modified oligonucleotide by itself, combination therapy with sorafenib was also tested. A control oligonucleotide 792169, described herein above, was also tested.
as §1, with “study. […] Animals were sacrificed, and tumors were collected on day 119 post implantation.” for “study.”
Yap1 mRNA knockdown in tumors was measured by RT-qPCR as previously described using the Human Yap1 primer-probe set RTS4814. Yap1 mRNA levels were normalized to actin-beta content, as measured by primer probe set RTS5002. Results are presented in the tables below as percent control of the amount of Yap1 mRNA relative to PBS treated animals (% control).

CNC(=O)c1cc(Oc2ccc(NC(=O)Nc3ccc(Cl)c(C(F)(F)F)c3)cc2)ccn1 [sorafenib]
% activation of ERK1/2 [1]: 142% | Average Tumor Volume ([2]; day 43 post tumor implantation): 112 mm^3 | Average Tumor Volume ([2]; day 46 post tumor implantation): 145 mm^3 | Average Tumor Volume ([2]; day 50 post tumor implantation): 159 mm^3 | Average Tumor Volume ([2]; day 53 post tumor implantation): 173 mm^3 | Average Tumor Volume ([2]; day 57 post tumor implantation): 200 mm^3 | Average Tumor Volume ([2]; day 67 post tumor implantation): 277 mm^3 | Average Tumor Volume ([2]; day 71 post tumor implantation): 249 mm^3 | Average Tumor Volume ([2]; day 75 post tumor implantation): 283 mm^3 | Average Tumor Volume ([2]; day 78 post tumor implantation): 322 mm^3 | Average Tumor Volume ([2]; day 81 post tumor implantation): 391 mm^3 | Average Tumor Volume ([2]; day 85 post tumor implantation): 416 mm^3 | Average Tumor Volume ([2]; day 88 post tumor implantation): 451 mm^3 | Average Tumor Volume ([2]; day 92 post tumor implantation): 508 mm^3 | Average Tumor Volume ([2]; day 94 post tumor implantation): 581 mm^3 | Average Tumor Volume ([2]; day 98 post tumor implantation): 625 mm^3 | Average Tumor Volume ([2]; day 101 post tumor implantation): 685 mm^3 | Average Tumor Volume ([2]; day 105 post tumor implantation): 671 mm^3 | Average Tumor Volume ([2]; day 108 post tumor implantation): 663 mm^3 | Average Tumor Volume ([2]; day 119 post tumor implantation): 747 mm^3 | Yap1 mRNA levels in tumors [3]: 103 % control
